From patent US8309550B2, “Kinase inhibitors and their use as pharmaceutical agents” (Shanghai Genomics, Inc., priority 2011, dated 2012)
Like-named read-outs stand apart in the source and are kept apart here.

Experiments:
[1] = target: T1, CDK1/cyclinB (Homo sapiens, UniProt P06493); test: Z'-LYTE kinase assay CDK1/cyclinB; type: biochemical
T1 construct: purchased Invitrogen PV3292
Protocol: (§1) Kinase assays. The compounds from the example above were tested for their ability to inhibit kinases. Recombinant human CDK2/cyclinA (PV3267), CDK1/cyclinB (PV3292), CDK5/p35 (PV3000) and Aurora A (PV3612) were purchased from Invitrogen (Carlsbad, Calif., USA). Kinase dosage and Z′-LYTE™ substrate for each kinase assay is as follows: CDK2/cyclinA-8 ng/reaction, Ser/Thr 12 Peptide; CDK1/cyclinB-0.8 ng/reaction, Ser/Thr 12 Peptide, CDK5/p35-0.8 ng/reaction, Ser/Thr 12 Peptide, and Aurora A-16 ng/reaction, Ser/Thr 1 Peptide. All enzymatic assays were performed using Z′-LYTE™ Kinase Assay Kits and were carried out following protocols provided by Invitrogen. To prepare stock solutions, compounds were dissolved at 10 mM in 100% DMSO and stored at 4° C. in amber glass vials. Enzyme reactions were initiated by adding recombinant enzyme and Z′-LYTE™ Ser/Thr peptide substrate and ATP mixture to 384-well plates containing diluted test compounds. Kinase and corresponding peptide substrate were incubated for 1 hr at room temperature in the presence of varying amounts of test compound with reaction buffer (20 μM ATP, […] [pH 7.5], 5 mM MgCl2, 0.5 mM EGTA, 0.005% Brij-35). Development buffer was added and incubated for another one hour at room temperature. Reactions were terminated by addition of stop buffer, and fluorescence emission intensity ratio 445 nm/520 nm (excited at 400 nm) was quantified by VICTOR-3 Multilabel Reader (Perkin-Elmer, Waltham, Mass., USA). Phosphorylation was calculated from the emission ratio. IC50 was determined using Sigmoid curve-fitting software Origin 6.0 (MicroCal, LLC, Northampton, Mass., USA).

[2] = target: T2, CDK2/cyclinA (Homo sapiens, UniProt P24941); test: Z'-LYTE kinase assay CDK2/cyclinA; type: biochemical
T2 construct: purchased Invitrogen PV3267
Protocol: as §1

[3] = target: T3, CDK5/p35 (Homo sapiens, UniProt Q00535); test: Z'-LYTE kinase assay CDK5/p35; type: biochemical
T3 construct: purchased Invitrogen PV3000
Protocol: as §1

[4] = target: CDK9T1 (Homo sapiens, UniProt P50750); test: Kinase assay CDK9T1 (Table I); type: biochemical; settings: read-out: Kinase inhibition, IC50 CDK9T1
Protocol: [The source words this procedure for another target and reports this target under the same test.] as §1

[5] = target: T4, Aurora A (Homo sapiens, UniProt O14965); test: Z'-LYTE kinase assay Aurora A; type: biochemical
T4 construct: purchased Invitrogen PV3612
T4 sequence (O14965 1-403): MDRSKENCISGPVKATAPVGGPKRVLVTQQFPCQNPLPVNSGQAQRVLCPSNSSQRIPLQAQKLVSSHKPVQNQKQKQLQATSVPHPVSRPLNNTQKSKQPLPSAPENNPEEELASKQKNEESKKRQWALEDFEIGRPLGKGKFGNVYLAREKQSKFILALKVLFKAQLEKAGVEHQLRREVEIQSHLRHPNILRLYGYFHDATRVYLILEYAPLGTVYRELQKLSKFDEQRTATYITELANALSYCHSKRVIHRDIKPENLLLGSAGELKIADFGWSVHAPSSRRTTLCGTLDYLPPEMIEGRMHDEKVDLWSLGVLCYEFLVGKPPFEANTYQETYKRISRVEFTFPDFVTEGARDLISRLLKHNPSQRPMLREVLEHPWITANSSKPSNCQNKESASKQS
Protocol: as §1

[6] = test system: A549 cells; test: 72 h MTT cytotoxicity assay A549; type: cell-based; settings: Homo sapiens; A549, 72 hrs
Description: (§2) MIT cytotoxicity assay. The compounds of the invention were subjected to a standard cellular proliferation assay using human cell lines. HeLa cells (Human cervix adenocarcinoma cell line, ATCC NO, CCL-2); A549 cells (Human lung carcinoma cells line, ATCC NO, CCL-185); U2OS cells (Human osteosarcoma cell line, ATCC NO, HTB-96); Eca-109 cells (Human esophageal carcinoma cell line); HepG2 (Human hepatocellular liver carcinoma cell line, ATCC NO, HB-8065); K562 cells (Human chronic myelogenous leukemia cell line, ATCC NO, CCL-243); SK-MEL-28 (Human malignant melanoma cell line, ATCC NO, HTB-72); Molt-4 (Human acute lymphoblastic leukemia cell line, ATCC NO, CRL-1582); H460 (Human large cell lung cancer cell line, ATCC NO, HTB-177); MDA-MB-231 (Human breast adenocarcinoma cell line, ATCC NO, HTB-26); MCF7 (Human breast adenocarcinoma cell line, ATCC NO, HTB-22); ACHN (Human renal cell adenocarcinoma cell line, ATCC NO, CRL-1611); PC-3M (Human prostate adenocarcinoma cell line, ATCC NO CRL-1435); HL60 (Human acute promyelocytic leukemia cell line, ATCC NO, CCL-240); THP-1 (Human acute monocytic leukemia, ATCC NO, TIB-202); Jurkat (Human acute T cell leukemia cell line, ATCC NO, CRL-2063); HCT-116 (Human colorectal carcinoma cell line, ATCC NO, CCL-247); HT-29 (Human colorectal adenocarcinoma cell line, ATCC NO, HTB-38™); WI-38 (Human normal lung cell line, ATCC NO, CCL-75); MRC-5 (Human normal lung cell line, ATCC NO, CCL-171).
(§3) HepG2, MDA-MB-231, WI-38 and MRC-5 cells were obtained from Shanghai Institute of Cell Biology, Chinese Academy of Sciences (Shanghai 200031, China). A549, HeLa, K562, MCF7, ACHN, H460, U2OS, Eca-109, MCF7, HL60, THP-1, Jurkat, HCT-116, HT-29, PC-3M, SK-MEL-28, Molt-4, H460 and […] cells were purchased from ATCC (American Type Culture Collection, USA).
(§4) Standard 72 h MTT (thiazolye blue; 3-[4,5-dimethylthiazol-2-yl]-2,5-diphenyltetrazolium bromide) assays were performed. Briefly, the cell lines used in this study were recovered and cultured according to the conditions recommended. 4000 cells per well were seeded into 96-well plates according to doubling time and incubated overnight at 37° C. Compounds were prepared in DMSO and a ½ dilution series in 100 μl cell culture media, added to cells (in duplicates) with the final DMSO concentration of 0.025%, and incubated for 72 hrs at 37° C. MTT solution (5 mg/ml) was added at 10 μl per well and incubated in the dark at 37° C. for 4 hr. Culture medium and MTT solution was removed. MTT dye was solubilised with 100 μl per well of DMSO with agitation. Absorbance was read at 562 nm and data analyzed using Sigmoid curve-fitting software Origin 6.0 (MicroCal, LLC, USA) to determine IC50 value.

[7] = test system: U2OS cells; test: 72 h MTT cytotoxicity assay U2OS; type: cell-based; settings: Homo sapiens
Description: as §2, §3, §4

[8] = test system: Eca-109 cells; test: 72 h MTT cytotoxicity assay Eca-109; type: cell-based; settings: Homo sapiens; Eca-109, 72 hrs
Description: as §2, §3, §4

[9] = test system: HepG2; test: 72 h MTT cytotoxicity assay HepG2; type: cell-based; settings: Homo sapiens; HepG2, 72 hrs
Description: as §2, §3, §4

[10] = test system: SK-MEL-28-luc; test: 72 h MTT cytotoxicity assay SK-MEL-28-luc; type: cell-based; settings: Homo sapiens
Description: as §2, §3, §4

[11] = test system: Molt-4-luc; test: 72 h MTT cytotoxicity assay Molt-4-luc; type: cell-based; settings: Homo sapiens
Description: as §2, §3, §4

[12] = test system: H460-luc; test: 72 h MTT cytotoxicity assay H460-luc; type: cell-based; settings: Homo sapiens, NCI-H460-Luc; H460-luc, 72 hrs; read-out: Cytotoxicity, MTT 72 hrs, IC50 H460-luc
Description: as §2, §3, §4

[13] = test system: MDA-MB-231-luc; test: 72 h MTT cell viability MDA-MB-231-luc; type: cell-based; settings: Homo sapiens
Description: as §2, §3, §4

[14] = test system: ACHN-luc; test: 72 h MTT cell viability ACHN-luc; type: cell-based; settings: Homo sapiens
Description: as §2, §3, §4

[15] = test system: PC-3M-luc; test: 72 h MTT cell viability PC-3M-luc; type: cell-based; settings: Homo sapiens
Description: as §2, §3, §4

[16] = test system: HL-60; test: 72 h MTT cell viability HL-60; type: cell-based; settings: Homo sapiens
Description: as §2, §3, §4

[17] = test system: THP-1; test: 72 h MTT cell viability THP-1; type: cell-based; settings: Homo sapiens, THP-1; read-out: Cell Viability IC50 THP-1
Description: as §2, §3, §4

[18] = test system: WI-38; test: 72 h MTT cell viability WI-38 (normal lung); type: cell-based; settings: Homo sapiens; WI-38, normal lung cell line
Description: as §2, §3, §4

[19] = target: Aurora B (Homo sapiens, UniProt Q96GD4); test: Kinase assay Aurora B (Table I); type: biochemical
Protocol: [The source words this procedure for another target and reports this target under the same test.] as §1

[20] = test system: HeLa cells; test: 72 h MTT cytotoxicity assay HeLa; type: cell-based; settings: Homo sapiens
Description: as §2, §3, §4

[21] = test system: K562 cells; test: 72 h MTT cytotoxicity assay K562; type: cell-based; settings: Homo sapiens; K562, 72 hrs
Description: as §2, §3, §4

[22] = test system: MCF7; test: 72 h MTT cytotoxicity assay MCF7; type: cell-based; settings: Homo sapiens; MCF7, 72 hrs
Description: as §2, §3, §4

[23] = target: CDK9 (Homo sapiens, UniProt P50750); test: CDK9 inhibitory activity, kinase assays (Table III); settings: read-out: Target biochemical activity IC50 CDK9
Protocol: (§5) Kinase assays. The compounds were tested for their ability to inhibit kinases.

[24] = target: CDK7 (Homo sapiens, UniProt P50613); test: Kinase assay CDK7 (Table III); settings: read-out: Target biochemical activity IC50 CDK7
Protocol: as §5

[25] = target: SRC (Homo sapiens, UniProt P12931); test: Kinase assay SRC (Table III); settings: read-out: Target biochemical activity IC50 SRC
Protocol: as §5

[26] = target: T5, TSSK1 (Homo sapiens, UniProt Q9BXA7); test: Kinase assay TSSK1 (Table III); settings: read-out: Target biochemical activity IC50 TSSK1
T5 sequence (Q9BXA7 1-367): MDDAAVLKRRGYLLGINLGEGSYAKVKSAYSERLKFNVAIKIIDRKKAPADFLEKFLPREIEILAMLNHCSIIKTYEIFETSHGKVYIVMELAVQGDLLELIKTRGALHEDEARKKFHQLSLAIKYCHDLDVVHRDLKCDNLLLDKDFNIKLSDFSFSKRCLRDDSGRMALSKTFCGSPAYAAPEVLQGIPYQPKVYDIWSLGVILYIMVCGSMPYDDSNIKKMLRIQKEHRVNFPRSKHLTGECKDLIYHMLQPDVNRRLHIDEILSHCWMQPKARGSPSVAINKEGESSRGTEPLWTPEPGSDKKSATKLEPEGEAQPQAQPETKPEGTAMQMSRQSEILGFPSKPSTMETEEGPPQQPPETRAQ
Protocol: as §5

[27] = read-out: Kinase inhibition, IC50 CDK1B
[28] = read-out: Kinase inhibition, IC50 CDK2A
[29] = read-out: Kinase inhibition, IC50 CDK5/p35
[30] = read-out: Kinase inhibition, IC50 Aurora A

T1 sequence (P06493 whole entry): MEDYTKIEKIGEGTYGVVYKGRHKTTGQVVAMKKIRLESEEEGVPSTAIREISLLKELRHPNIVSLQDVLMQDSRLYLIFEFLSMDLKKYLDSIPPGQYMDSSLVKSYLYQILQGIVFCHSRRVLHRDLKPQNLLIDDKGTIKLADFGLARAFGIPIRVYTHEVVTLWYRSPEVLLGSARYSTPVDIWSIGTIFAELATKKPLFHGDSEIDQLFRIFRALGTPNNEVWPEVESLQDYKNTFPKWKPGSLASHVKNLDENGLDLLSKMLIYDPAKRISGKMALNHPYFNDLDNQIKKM
T1 sequence (P14635 whole entry partner): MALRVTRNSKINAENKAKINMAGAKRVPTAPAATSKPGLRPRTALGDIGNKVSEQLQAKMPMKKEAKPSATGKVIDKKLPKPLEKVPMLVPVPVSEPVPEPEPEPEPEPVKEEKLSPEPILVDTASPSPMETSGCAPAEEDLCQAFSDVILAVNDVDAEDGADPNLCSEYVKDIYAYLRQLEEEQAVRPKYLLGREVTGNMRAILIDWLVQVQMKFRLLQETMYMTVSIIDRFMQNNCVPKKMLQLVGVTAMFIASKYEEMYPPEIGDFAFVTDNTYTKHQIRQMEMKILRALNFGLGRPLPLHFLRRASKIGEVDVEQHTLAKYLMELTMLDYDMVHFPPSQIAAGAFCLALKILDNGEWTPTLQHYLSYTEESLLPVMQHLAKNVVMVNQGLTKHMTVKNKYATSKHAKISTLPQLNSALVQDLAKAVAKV
T3 sequence (Q00535 whole entry): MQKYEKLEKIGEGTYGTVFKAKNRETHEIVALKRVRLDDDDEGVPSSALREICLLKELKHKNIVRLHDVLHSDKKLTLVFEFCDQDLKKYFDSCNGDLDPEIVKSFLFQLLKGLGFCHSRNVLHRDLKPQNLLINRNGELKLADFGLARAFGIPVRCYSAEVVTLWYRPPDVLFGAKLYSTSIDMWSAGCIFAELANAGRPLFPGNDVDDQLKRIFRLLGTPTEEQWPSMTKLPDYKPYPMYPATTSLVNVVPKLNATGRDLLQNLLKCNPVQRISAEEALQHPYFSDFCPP
T3 sequence (Q15078 whole entry partner): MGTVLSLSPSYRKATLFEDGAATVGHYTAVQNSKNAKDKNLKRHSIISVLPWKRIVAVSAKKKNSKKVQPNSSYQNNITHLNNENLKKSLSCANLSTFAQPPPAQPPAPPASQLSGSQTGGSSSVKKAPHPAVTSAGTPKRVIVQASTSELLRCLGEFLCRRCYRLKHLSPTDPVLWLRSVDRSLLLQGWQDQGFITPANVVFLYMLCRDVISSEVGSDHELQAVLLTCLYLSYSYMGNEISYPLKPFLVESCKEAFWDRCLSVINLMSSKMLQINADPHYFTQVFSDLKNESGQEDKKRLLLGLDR
CDK9T1, sequence (P50750 whole entry): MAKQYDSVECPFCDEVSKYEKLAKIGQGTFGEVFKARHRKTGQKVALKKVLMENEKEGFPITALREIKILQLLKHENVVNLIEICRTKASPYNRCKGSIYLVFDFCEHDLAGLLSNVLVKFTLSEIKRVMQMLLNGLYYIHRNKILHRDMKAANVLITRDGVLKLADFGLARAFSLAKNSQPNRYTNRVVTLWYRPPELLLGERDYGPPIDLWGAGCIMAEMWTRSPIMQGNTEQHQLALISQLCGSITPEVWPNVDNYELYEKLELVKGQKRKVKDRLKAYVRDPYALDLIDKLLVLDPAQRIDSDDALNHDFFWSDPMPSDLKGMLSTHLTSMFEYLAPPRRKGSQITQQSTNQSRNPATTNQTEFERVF
CDK9T1, sequence (O60563 whole entry partner): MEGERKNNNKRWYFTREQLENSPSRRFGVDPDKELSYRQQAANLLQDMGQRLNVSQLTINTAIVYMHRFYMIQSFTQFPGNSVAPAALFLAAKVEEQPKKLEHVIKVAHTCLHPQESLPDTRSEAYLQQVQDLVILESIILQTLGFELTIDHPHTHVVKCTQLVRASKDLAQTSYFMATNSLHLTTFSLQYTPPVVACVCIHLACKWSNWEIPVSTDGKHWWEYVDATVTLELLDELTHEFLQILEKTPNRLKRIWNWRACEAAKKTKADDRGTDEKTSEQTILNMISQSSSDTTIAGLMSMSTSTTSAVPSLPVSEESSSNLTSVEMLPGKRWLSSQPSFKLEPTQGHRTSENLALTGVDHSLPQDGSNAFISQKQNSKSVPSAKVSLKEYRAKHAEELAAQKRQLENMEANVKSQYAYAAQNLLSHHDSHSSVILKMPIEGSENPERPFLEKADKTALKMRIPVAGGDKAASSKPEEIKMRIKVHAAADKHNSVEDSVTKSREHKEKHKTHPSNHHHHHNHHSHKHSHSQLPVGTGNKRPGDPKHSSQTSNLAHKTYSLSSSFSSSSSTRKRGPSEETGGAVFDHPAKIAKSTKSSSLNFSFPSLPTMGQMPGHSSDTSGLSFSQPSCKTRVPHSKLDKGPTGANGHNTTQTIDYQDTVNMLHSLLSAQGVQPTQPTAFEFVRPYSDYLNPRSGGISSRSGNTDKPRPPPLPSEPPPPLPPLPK
Aurora B, sequence (Q96GD4 whole entry): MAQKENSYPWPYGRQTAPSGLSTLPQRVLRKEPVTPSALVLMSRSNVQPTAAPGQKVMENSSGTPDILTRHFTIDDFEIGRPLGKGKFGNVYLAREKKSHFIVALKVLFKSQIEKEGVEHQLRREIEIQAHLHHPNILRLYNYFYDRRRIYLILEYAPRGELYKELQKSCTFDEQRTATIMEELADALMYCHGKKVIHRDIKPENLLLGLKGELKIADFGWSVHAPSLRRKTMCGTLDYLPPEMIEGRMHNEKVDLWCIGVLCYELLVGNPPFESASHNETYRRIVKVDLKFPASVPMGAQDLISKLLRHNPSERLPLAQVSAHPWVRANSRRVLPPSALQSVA
SRC, sequence (P12931 whole entry, species assumed): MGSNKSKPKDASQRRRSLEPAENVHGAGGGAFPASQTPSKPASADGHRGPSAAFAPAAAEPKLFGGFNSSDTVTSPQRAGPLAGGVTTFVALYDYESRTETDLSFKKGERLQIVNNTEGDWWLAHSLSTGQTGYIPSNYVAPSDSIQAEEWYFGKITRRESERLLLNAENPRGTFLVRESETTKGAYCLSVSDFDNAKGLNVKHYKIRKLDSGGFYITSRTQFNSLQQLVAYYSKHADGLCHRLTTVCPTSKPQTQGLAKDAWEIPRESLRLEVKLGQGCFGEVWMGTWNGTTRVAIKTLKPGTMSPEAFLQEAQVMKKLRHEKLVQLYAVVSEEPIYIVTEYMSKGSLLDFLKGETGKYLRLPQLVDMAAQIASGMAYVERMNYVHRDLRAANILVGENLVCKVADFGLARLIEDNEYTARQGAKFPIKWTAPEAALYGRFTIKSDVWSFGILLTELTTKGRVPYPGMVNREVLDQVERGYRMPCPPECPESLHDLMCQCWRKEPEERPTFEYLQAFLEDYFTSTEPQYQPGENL
CDK7, sequence (P50613 whole entry, species assumed): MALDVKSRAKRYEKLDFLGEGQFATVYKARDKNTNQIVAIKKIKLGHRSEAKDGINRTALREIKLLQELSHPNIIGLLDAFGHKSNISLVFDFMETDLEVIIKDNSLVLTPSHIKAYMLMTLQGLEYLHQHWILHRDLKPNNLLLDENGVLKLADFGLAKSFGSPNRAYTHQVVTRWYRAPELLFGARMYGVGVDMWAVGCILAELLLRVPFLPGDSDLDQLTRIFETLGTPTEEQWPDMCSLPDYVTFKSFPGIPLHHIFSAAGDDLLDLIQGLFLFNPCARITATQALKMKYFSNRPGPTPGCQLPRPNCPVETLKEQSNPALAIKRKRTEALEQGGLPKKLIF
CDK7, sequence (P51946 whole entry partner, species assumed): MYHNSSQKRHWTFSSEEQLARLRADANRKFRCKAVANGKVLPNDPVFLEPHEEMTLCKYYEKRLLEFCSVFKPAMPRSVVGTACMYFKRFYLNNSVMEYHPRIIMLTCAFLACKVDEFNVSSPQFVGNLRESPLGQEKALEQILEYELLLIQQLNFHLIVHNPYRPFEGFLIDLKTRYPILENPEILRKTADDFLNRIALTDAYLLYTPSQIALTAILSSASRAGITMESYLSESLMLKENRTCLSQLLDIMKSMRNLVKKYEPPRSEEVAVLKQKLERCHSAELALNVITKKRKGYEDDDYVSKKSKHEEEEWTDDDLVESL
CDK7, sequence (P51948 whole entry partner, species assumed): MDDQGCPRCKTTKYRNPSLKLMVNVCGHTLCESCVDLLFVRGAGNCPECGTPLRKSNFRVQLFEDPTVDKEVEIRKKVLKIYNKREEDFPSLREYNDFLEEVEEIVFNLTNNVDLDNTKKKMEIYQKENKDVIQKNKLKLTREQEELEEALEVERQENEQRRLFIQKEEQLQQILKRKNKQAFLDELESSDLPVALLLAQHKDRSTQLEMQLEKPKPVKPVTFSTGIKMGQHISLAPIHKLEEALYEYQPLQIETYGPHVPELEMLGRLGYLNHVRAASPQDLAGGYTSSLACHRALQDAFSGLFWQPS
CDK9, sequence (P50750 whole entry, species assumed): as the sequence (P50750 whole entry) above
CDK9, sequence (O60563 whole entry partner, species assumed): as the sequence (O60563 whole entry partner) above

CCn1cc(-c2ccnc(Nc3cccc(S(N)(=O)=O)c3)n2)c2ccnc(Cl)c21 [Compound 73, 3-(4-(7-Chloro-1-ethyl-1H-pyrrolo[2,3-c]pyridin-3-yl)pyrimidin-2-ylamino)benzenesulfonamide]
IC50 [1, 27]: 180 nM | IC50 [2, 28]: 3.8 nM | IC50 [3, 29]: 190 nM | IC50 [4]: 24 nM | IC50 [5, 30]: 1280 nM | IC50 [6]: 370 nM | IC50 [7]: 410 nM | IC50 [8]: > 10000 nM | IC50 [9]: 180 nM | IC50 [10]: 490 nM | IC50 [11]: 430 nM | IC50 [12]: 315 nM | IC50 [13]: 440 nM | IC50 [14]: 510 nM | IC50 [15]: 890 nM | IC50 [16]: 430 nM | IC50 [17]: 2740 nM | IC50 [18]: > 10000 nM

CCCn1cc(-c2ccnc(Nc3ccc(S(N)(=O)=O)cc3)n2)c2nc(Cl)cc(C)c21 [Compound 39, 4-(4-(5-Chloro-7-methyl-1-propyl-1H-pyrrolo[3,2-b]pyridin-3-yl)pyrimidin-2-ylamino)benzenesulfonamide]
IC50 [1, 27]: > 10000 nM | IC50 [2, 28]: 1670 nM | IC50 [3, 29]: > 10000 nM | IC50 [4]: 57 nM | IC50 [5, 30]: 620 nM | IC50 ([19]; read-out: Kinase inhibition, IC50 Aurora B): 320 nM | IC50 [20]: 3300 nM | IC50 [6]: 420 nM | IC50 [7]: 1260 nM | IC50 [8]: 3700 nM | IC50 [9]: 100 nM | IC50 [21]: 4720 nM | IC50 [22]: > 10000 nM | IC50 [10]: 3410 nM | IC50 [11]: 5250 nM | IC50 [12]: 1030 nM | IC50 [13]: 2030 nM | IC50 [14]: 13700 nM | IC50 [15]: > 10000 nM | IC50 [16]: 1270 nM

CCn1cc(-c2ccnc(Nc3ccc(O)cc3)n2)c2ccnc(Cl)c21 [SG49]
IC50 ([1]; Table III, read-out: Target biochemical activity IC50 CDK1): 190 nM | IC50 ([2]; Table III, read-out: Target biochemical activity IC50 CDK2): 16 nM | IC50 ([3]; Table III, read-out: Target biochemical activity IC50 CDK5): 350 nM | IC50 ([5]; Table III, read-out: Target biochemical activity IC50 Aurora A): 2460 nM | IC50 ([19]; Table III, read-out: Target biochemical activity IC50 Aurora B): > 10000 nM | IC50 [23]: 95 nM | IC50 [24]: > 10000 nM | IC50 [25]: 4560 nM | IC50 [26]: 1490 nM
